Measured values from patent US20020143034A1, “Aminoalcohol derivatives and their use as beta 3 adrenergic agonists” (Fujisawa Pharmaceutical Co. Ltd., priority 1998, published 2002).

Test system: anesthetized dog
Test: Effect on the increase in intravesical pressure induced by carbachol in anesthetized dog
Format: in vivo
Details: 0.32 mg/kg intra-duodenal, 30 minutes before carbachol (1.8 μg/kg); female Beagle dogs under halothane anesthesia; N = 2; Control 9.3
Method: Effect on the increase in intravesical pressure induced by carbachol in anesthetized dog
Female Beagle dogs weighing 8.0-15.0 kg were fasted for 24 hours and maintained under halothane anesthesia. A 12F Foley catheter was lubricated with water soluble jelly, inserted into the urethral orifice and advanced approximately 10 cm until the balloon tip was placed well inside the bladder. The balloon was then inflated with 5 ml of room air and catheter slowly withdrawn just part the first resistance that is felt at the bladder neck. Urine was completely drained out thought the catheter, and 30 ml of biological saline was infused. The catheter was connected to pressure transducer, and intravesical pressure was continuously recorded. The test compound was injected by intra-duodenal route at 30 minutes before the administration of carbachol (1.8 μg/kg).

With COc1ccc2c(Oc3ccc(C[C@@H](CO)NC[C@H](O)COc4ccccc4)cc3)ccnc2c1 [Example 78, 2(S)-2-[(2S)-2-hydroxy-3-(phenoxy)propylamino]-3-[4-(7-methoxyquinolin-4-yloxy)phenyl]propan-1-ol] the “Increase in intravesical pressure” value was 5.5 mmHg.
